Peptide text beside a SMILES is read from it.
How the values were obtained:
Format in all cases: biochemical
HDAC2 = target: T1, HDAC2 (Homo sapiens, UniProt Q92769); test: HDAC2 inhibition, full IC50 measurement (Reaction Biology; fluorogenic p53 peptide RHKK(Ac)AMC)
T1 construct: purchased Reaction Biology Corporation (assay run by the CRO)
Procedure, shortened: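 Inhibitory peptides were acoustically dispensed with enzyme, then substrate added; 1 h at 30 °C. Developer stopped reaction; plateau endpoint fluorescence (360/460 nm) gave IC50.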

HDAC1 = target: T2, HDAC1 (Homo sapiens, UniProt Q13547); test: HDAC1 inhibition, full IC50 measurement (Reaction Biology; fluorogenic p53 peptide RHKK(Ac)AMC); conditions: t1/t2 replicates
T2 construct: purchased Reaction Biology Corporation (assay run by the CRO)
Description: (§1) The assay was performed using 50 μM fluorogenic peptide from p53 residues 379-382 [RHKK(Ac)AMC] in a base reaction buffer of 50 mM Tris-HCl at pH 8.0, 137 mM NaCl, 2.7 mM KCl, 1 mM MgCl2, and freshly added 1 mg/ml BSA and 1% DMSO. Peptides were first dissolved in DMSO and then added to the reaction mixture with the enzyme using acoustic technique, enough to reach the desired concentration for that assay point. Peptide concentrations were calculated based on mass of lyophilized peptide and its molecular weight. The substrate was then added and incubated for 1 hour at 30 °C in a sealed container. After the incubation, developer was added to stop the reaction and develop color. Kinetic measurements were then performed for 20 min with Envision with 5 min intervals (Ex/Em = 360/460 nm). The endpoint after plateau was taken for IC50 measurement.
(§2) In cases where duplicate measures are used, average data is reported in the main text or Supplementary Tables.

HDAC8 = target: T3, HDAC8 (Homo sapiens, UniProt Q9BY41); test: HDAC8 inhibition, full IC50 measurement (Reaction Biology; fluorogenic p53 peptide RHKK(Ac)AMC); conditions: t1/t2 replicates
T3 construct: purchased Reaction Biology Corporation (assay run by the CRO)
T3 sequence (Q9BY41 1-377): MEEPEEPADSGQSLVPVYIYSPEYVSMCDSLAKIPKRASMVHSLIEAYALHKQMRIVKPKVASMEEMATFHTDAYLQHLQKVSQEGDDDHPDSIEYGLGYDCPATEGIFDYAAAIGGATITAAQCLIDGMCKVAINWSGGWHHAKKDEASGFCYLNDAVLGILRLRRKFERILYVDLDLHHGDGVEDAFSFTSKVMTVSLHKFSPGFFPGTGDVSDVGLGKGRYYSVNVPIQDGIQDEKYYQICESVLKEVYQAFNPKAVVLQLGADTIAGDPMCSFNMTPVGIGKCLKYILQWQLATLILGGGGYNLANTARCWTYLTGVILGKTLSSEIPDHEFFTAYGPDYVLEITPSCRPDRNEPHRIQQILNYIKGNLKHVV
Description: as §1, §2

HDAC3 = target: T4, HDAC3 (Homo sapiens, UniProt O15379); test: HDAC3 inhibition, full IC50 measurement (Reaction Biology; fluorogenic p53 peptide RHKK(Ac)AMC)
T4 construct: purchased Reaction Biology Corporation (assay run by the CRO)
Description: as §1, §2

[1] = peptide conc. 1.00E-05 M, listed as des2.1.0_t1
[2] = peptide conc. 1.00E-05 M, listed as des2.1.0_t2
[3] = peptide conc. 1.11E-06 M, listed as des2.1.0_t1
[4] = peptide conc. 1.11E-06 M, listed as des2.1.0_t2
[5] = peptide conc. 1.23E-07 M, listed as des2.1.0_t1
[6] = peptide conc. 1.23E-07 M, listed as des2.1.0_t2
[7] = peptide conc. 1.37E-08 M, listed as des2.1.0_t1
[8] = peptide conc. 1.37E-08 M, listed as des2.1.0_t2
[9] = peptide conc. 1.52E-09 M, listed as des2.1.0_t1
[10] = peptide conc. 1.52E-09 M, listed as des2.1.0_t2
[11] = peptide conc. 3.33E-06 M, listed as des2.1.0_t1
[12] = peptide conc. 3.33E-06 M, listed as des2.1.0_t2
[13] = peptide conc. 3.70E-07 M, listed as des2.1.0_t1
[14] = peptide conc. 3.70E-07 M, listed as des2.1.0_t2
[15] = peptide conc. 4.12E-08 M, listed as des2.1.0_t1
[16] = peptide conc. 4.12E-08 M, listed as des2.1.0_t2
[17] = peptide conc. 4.57E-09 M, listed as des2.1.0_t1
[18] = peptide conc. 4.57E-09 M, listed as des2.1.0_t2
[19] = peptide conc. 5.08E-10 M, listed as des2.1.0_t1
[20] = peptide conc. 5.08E-10 M, listed as des2.1.0_t2

T2 sequence (Q13547 whole entry): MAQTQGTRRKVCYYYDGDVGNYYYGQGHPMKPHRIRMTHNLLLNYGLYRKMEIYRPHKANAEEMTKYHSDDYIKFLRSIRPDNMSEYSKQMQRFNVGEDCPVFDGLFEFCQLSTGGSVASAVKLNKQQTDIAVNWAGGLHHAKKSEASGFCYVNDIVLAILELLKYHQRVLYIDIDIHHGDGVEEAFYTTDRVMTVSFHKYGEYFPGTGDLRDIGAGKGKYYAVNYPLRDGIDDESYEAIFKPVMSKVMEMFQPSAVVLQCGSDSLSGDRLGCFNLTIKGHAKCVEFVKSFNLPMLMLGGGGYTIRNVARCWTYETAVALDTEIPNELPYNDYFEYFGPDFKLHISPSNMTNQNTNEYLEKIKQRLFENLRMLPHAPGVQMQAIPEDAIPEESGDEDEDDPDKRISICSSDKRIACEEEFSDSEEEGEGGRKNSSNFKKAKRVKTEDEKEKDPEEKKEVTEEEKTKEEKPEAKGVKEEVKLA
T4 sequence (O15379 whole entry): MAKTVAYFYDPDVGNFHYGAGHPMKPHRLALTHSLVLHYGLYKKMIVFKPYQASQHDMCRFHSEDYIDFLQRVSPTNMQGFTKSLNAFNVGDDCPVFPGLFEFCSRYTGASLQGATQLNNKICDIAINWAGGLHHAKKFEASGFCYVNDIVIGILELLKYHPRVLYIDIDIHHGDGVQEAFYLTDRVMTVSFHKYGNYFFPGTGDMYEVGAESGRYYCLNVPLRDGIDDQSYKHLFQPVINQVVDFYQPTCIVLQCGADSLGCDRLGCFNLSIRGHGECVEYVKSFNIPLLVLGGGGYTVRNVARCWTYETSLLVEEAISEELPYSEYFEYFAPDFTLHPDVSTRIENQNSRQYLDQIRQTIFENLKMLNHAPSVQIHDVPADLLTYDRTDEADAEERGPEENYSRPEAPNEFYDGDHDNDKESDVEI
T4 sequence (Q9Y618 395-489 partner limits assumed): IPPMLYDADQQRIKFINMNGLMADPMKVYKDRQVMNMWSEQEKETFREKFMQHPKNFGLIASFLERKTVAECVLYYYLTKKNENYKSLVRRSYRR
T1 sequence (Q92769 whole entry): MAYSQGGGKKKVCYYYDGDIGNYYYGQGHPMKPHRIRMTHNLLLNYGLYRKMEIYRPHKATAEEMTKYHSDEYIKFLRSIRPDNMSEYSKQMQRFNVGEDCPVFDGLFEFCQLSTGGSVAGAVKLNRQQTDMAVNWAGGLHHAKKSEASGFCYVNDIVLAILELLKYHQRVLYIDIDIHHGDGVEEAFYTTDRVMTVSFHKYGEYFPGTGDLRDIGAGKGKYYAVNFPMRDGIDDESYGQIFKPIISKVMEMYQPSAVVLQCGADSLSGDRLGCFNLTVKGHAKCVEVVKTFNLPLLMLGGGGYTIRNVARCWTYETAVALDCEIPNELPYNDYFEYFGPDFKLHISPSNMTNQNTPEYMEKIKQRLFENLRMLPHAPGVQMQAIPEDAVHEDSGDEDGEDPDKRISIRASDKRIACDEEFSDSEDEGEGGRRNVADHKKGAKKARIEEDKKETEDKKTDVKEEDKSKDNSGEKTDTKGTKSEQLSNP

C[C@H](O)[C@H]1NC(=O)[C@H](Cc2c[nH]c3ccccc23)NC(=O)[C@H](CCCCCS)NC(=O)[C@H](CCCCN)NC(=O)[C@@H](CC(=O)O)NC(=O)[C@@H](CCCCN)NC(=O)[C@@H](CO)NC(=O)[C@H](CC(N)=O)NC(=O)[C@H](CC(=O)O)NC1=O [des2.1.0, SHA-Trp-dThr-Asp-Asn-dSer-dLys-dAsp-Lys] (HELM PEPTIDE1{D.N.[dS].[dK].[dD].K.[O=C([C@H](CCCCCS)N[*:1])[*:2]].W.[dT]}$PEPTIDE1,PEPTIDE1,1:R1-9:R2$$$V2.0)
HDAC2 activity raw data (signal) (HDAC2; Conc. 1.00E-05 M, t1): 8775
HDAC2 activity raw data (signal) (HDAC2; Conc. 1.00E-05 M, t2): 5752
HDAC2 activity raw data (signal) (HDAC2; Conc. 1.11E-06 M, t1): 59204
HDAC2 activity raw data (signal) (HDAC2; Conc. 1.11E-06 M, t2): 55653
HDAC2 activity raw data (signal) (HDAC2; Conc. 1.23E-07 M, t1): 287500
HDAC2 activity raw data (signal) (HDAC2; Conc. 1.23E-07 M, t2): 296559
HDAC2 activity raw data (signal) (HDAC2; Conc. 1.37E-08 M, t1): 771007
HDAC2 activity raw data (signal) (HDAC2; Conc. 1.37E-08 M, t2): 731853
HDAC2 activity raw data (signal) (HDAC2; Conc. 1.52E-09 M, t1): 900838
HDAC2 activity raw data (signal) (HDAC2; Conc. 1.52E-09 M, t2): 951179
HDAC2 activity raw data (signal) (HDAC2; Conc. 3.33E-06 M, t1): 26370
HDAC2 activity raw data (signal) (HDAC2; Conc. 3.33E-06 M, t2): 19470
HDAC2 activity raw data (signal) (HDAC2; Conc. 3.70E-07 M, t1): 153888
HDAC2 activity raw data (signal) (HDAC2; Conc. 3.70E-07 M, t2): 158440
HDAC2 activity raw data (signal) (HDAC2; Conc. 4.12E-08 M, t1): 557731
HDAC2 activity raw data (signal) (HDAC2; Conc. 4.12E-08 M, t2): 531503
HDAC2 activity raw data (signal) (HDAC2; Conc. 4.57E-09 M, t1): 870100
HDAC2 activity raw data (signal) (HDAC2; Conc. 4.57E-09 M, t2): 861014
HDAC2 activity raw data (signal) (HDAC2; Conc. 5.08E-10 M, t1): 1022928
HDAC2 activity raw data (signal) (HDAC2; Conc. 5.08E-10 M, t2): 990162
IC50 (HDAC2; figure legends, Supp. Table 1, read-out: HDAC2 IC50): 49.3 nM
HDAC1 activity raw data (signal) (HDAC1; [1]): 2361
HDAC1 activity raw data (signal) (HDAC1; [2]): -1067
HDAC1 activity raw data (signal) (HDAC1; [3]): 35066
HDAC1 activity raw data (signal) (HDAC1; [4]): 30452
HDAC1 activity raw data (signal) (HDAC1; [5]): 229823
HDAC1 activity raw data (signal) (HDAC1; [6]): 221730
HDAC1 activity raw data (signal) (HDAC1; [7]): 719453
HDAC1 activity raw data (signal) (HDAC1; [8]): 647364
HDAC1 activity raw data (signal) (HDAC1; [9]): 1054522
HDAC1 activity raw data (signal) (HDAC1; [10]): 936834
HDAC1 activity raw data (signal) (HDAC1; [11]): 10147
HDAC1 activity raw data (signal) (HDAC1; [12]): 8024
HDAC1 activity raw data (signal) (HDAC1; [13]): 106445
HDAC1 activity raw data (signal) (HDAC1; [14]): 96156
HDAC1 activity raw data (signal) (HDAC1; [15]): 447049
HDAC1 activity raw data (signal) (HDAC1; [16]): 424224
HDAC1 activity raw data (signal) (HDAC1; [17]): 905513
HDAC1 activity raw data (signal) (HDAC1; [18]): 862794
HDAC1 activity raw data (signal) (HDAC1; [19]): 1056262
HDAC1 activity raw data (signal) (HDAC1; [20]): 1080293
HDAC8 activity raw data (signal) (HDAC8; [1]): 3317278
HDAC8 activity raw data (signal) (HDAC8; [2]): 3225773
HDAC8 activity raw data (signal) (HDAC8; [3]): 14350924
HDAC8 activity raw data (signal) (HDAC8; [4]): 13274280
HDAC8 activity raw data (signal) (HDAC8; [5]): 29733699
HDAC8 activity raw data (signal) (HDAC8; [6]): 29791882
HDAC8 activity raw data (signal) (HDAC8; [7]): 39649362
HDAC8 activity raw data (signal) (HDAC8; [8]): 39639123
HDAC8 activity raw data (signal) (HDAC8; [9]): 48372865
HDAC8 activity raw data (signal) (HDAC8; [10]): 43623554
HDAC8 activity raw data (signal) (HDAC8; [11]): 8085277
HDAC8 activity raw data (signal) (HDAC8; [12]): 7910023
HDAC8 activity raw data (signal) (HDAC8; [13]): 24973470
HDAC8 activity raw data (signal) (HDAC8; [14]): 23110500
HDAC8 activity raw data (signal) (HDAC8; [15]): 39179752
HDAC8 activity raw data (signal) (HDAC8; [16]): 38239026
HDAC8 activity raw data (signal) (HDAC8; [17]): 45086009
HDAC8 activity raw data (signal) (HDAC8; [18]): 40240975
HDAC8 activity raw data (signal) (HDAC8; [19]): 46468325
HDAC8 activity raw data (signal) (HDAC8; [20]): 43451568
HDAC3 activity raw data (signal) (HDAC3; Conc. 1.00E-05 M, t1): 14719
HDAC3 activity raw data (signal) (HDAC3; Conc. 1.00E-05 M, t2): 13801
HDAC3 activity raw data (signal) (HDAC3; Conc. 1.11E-06 M, t1): 92063
HDAC3 activity raw data (signal) (HDAC3; Conc. 1.11E-06 M, t2): 96957
HDAC3 activity raw data (signal) (HDAC3; Conc. 1.23E-07 M, t1): 462933
HDAC3 activity raw data (signal) (HDAC3; Conc. 1.23E-07 M, t2): 478168
HDAC3 activity raw data (signal) (HDAC3; Conc. 1.37E-08 M, t1): 1054714
HDAC3 activity raw data (signal) (HDAC3; Conc. 1.37E-08 M, t2): 1114131
HDAC3 activity raw data (signal) (HDAC3; Conc. 1.52E-09 M, t1): 1368847
HDAC3 activity raw data (signal) (HDAC3; Conc. 1.52E-09 M, t2): 1246343
HDAC3 activity raw data (signal) (HDAC3; Conc. 3.33E-06 M, t1): 35860
HDAC3 activity raw data (signal) (HDAC3; Conc. 3.33E-06 M, t2): 35981
HDAC3 activity raw data (signal) (HDAC3; Conc. 3.70E-07 M, t1): 254333
HDAC3 activity raw data (signal) (HDAC3; Conc. 3.70E-07 M, t2): 260454
HDAC3 activity raw data (signal) (HDAC3; Conc. 4.12E-08 M, t1): 754531
HDAC3 activity raw data (signal) (HDAC3; Conc. 4.12E-08 M, t2): 801621
HDAC3 activity raw data (signal) (HDAC3; Conc. 4.57E-09 M, t1): 1235523
HDAC3 activity raw data (signal) (HDAC3; Conc. 4.57E-09 M, t2): 1319114
HDAC3 activity raw data (signal) (HDAC3; Conc. 5.08E-10 M, t1): 1390666
HDAC3 activity raw data (signal) (HDAC3; Conc. 5.08E-10 M, t2): 1409656

From paper PMC8185074, “Anchor extension: a structure-guided approach to design cyclic peptides targeting enzyme active sites” (Nature Communications, 2021)
